Results reported in patent US8791264B2 (Purdue Pharma L.P., priority 2006, dated 2014).
pIC50: −log10 of the molar value.

Tests used:
[1] = target: T1, N-type calcium channel (NTCC) (Homo sapiens, UniProt Q00975); assay: FLIPR calcium mobilization assay for N-type calcium channel; type: cell-based; settings: calcium mobilization in vitro assay; differentiated IMR32 cells
T1 construct: host or cells: IMR32 cells differentiated with dibutyryl cAMP and bromodeoxyuridine
Procedure, shortened: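 Differentiated IMR32 cells (8 days, dibutyryl cAMP and BrdU) loaded with 3 μM Fluo-4 during 90 mM KCl pre-stimulation, with compound at about 846 pM to 17 μM plus 5 μM nitrendipine. After washes in compound, FLIPR read basal fluorescence 315 s, then 45 s after KCl addition (final 90 mM).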

[2] = target: T2, recombinant rat L-type calcium channel (LTCC) subunits (α1c, α2δ, and β1) (Rattus norvegicus, UniProt P22002); assay: FLIPR calcium mobilization assay for L-type calcium channel; type: cell-based; settings: calcium mobilization in vitro assay; HEK293 cells expressing rat LTCC
T2 construct: expressed in transfected cells
T2 sequence (P22002 whole entry): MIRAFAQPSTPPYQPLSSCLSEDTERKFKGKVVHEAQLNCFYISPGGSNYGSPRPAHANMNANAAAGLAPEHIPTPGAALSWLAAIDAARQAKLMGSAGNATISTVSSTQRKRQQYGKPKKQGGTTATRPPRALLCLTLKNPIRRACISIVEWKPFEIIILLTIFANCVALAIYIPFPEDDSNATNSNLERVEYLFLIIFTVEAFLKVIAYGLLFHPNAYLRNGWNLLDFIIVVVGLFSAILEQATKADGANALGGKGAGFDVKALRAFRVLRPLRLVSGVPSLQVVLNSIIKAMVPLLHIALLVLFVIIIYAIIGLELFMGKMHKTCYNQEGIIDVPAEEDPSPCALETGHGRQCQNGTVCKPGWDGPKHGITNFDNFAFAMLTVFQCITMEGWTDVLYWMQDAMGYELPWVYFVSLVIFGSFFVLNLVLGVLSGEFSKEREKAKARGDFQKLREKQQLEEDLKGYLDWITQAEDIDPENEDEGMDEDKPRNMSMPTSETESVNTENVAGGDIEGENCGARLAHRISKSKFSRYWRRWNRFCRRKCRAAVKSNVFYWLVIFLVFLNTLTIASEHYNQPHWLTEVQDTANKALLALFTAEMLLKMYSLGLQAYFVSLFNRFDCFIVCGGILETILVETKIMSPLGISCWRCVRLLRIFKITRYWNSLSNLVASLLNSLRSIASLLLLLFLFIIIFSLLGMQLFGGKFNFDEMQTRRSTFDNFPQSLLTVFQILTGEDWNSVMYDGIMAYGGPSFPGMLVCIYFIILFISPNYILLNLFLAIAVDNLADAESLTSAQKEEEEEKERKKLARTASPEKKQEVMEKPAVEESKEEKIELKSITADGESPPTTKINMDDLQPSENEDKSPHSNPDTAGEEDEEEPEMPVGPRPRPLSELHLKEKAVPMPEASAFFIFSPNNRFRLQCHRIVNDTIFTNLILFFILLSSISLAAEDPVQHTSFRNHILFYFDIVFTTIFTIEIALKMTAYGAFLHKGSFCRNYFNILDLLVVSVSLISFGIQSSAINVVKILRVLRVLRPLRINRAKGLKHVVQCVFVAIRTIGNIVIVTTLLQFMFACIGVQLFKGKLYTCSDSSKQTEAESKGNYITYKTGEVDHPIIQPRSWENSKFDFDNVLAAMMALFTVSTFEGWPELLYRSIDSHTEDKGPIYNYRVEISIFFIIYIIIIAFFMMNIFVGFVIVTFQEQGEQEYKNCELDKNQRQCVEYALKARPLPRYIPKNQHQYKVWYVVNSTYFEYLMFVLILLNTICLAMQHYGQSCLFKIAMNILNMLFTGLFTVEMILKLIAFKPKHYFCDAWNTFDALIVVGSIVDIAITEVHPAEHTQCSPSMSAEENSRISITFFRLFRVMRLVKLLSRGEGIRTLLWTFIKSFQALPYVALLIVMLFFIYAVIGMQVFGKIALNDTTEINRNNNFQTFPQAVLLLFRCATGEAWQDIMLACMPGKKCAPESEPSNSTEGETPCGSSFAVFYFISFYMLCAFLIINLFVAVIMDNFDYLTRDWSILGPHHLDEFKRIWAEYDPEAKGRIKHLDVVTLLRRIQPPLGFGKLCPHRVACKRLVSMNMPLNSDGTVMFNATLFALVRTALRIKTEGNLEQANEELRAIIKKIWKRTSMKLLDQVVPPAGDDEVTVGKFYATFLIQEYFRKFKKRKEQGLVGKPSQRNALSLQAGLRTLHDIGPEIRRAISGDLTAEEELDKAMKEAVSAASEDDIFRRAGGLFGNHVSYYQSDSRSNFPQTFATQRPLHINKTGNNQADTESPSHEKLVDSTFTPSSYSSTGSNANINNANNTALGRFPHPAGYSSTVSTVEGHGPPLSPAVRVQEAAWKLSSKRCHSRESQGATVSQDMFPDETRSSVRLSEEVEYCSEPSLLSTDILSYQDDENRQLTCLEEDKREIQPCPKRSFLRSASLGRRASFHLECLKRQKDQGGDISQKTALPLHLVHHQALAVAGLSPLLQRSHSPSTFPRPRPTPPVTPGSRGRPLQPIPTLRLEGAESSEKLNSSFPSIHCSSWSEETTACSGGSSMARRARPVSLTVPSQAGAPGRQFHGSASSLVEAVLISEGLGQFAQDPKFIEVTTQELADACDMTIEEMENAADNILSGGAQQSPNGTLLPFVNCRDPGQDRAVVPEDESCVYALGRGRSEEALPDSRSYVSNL
T2 sequence (P54290 25-944 partner limits assumed): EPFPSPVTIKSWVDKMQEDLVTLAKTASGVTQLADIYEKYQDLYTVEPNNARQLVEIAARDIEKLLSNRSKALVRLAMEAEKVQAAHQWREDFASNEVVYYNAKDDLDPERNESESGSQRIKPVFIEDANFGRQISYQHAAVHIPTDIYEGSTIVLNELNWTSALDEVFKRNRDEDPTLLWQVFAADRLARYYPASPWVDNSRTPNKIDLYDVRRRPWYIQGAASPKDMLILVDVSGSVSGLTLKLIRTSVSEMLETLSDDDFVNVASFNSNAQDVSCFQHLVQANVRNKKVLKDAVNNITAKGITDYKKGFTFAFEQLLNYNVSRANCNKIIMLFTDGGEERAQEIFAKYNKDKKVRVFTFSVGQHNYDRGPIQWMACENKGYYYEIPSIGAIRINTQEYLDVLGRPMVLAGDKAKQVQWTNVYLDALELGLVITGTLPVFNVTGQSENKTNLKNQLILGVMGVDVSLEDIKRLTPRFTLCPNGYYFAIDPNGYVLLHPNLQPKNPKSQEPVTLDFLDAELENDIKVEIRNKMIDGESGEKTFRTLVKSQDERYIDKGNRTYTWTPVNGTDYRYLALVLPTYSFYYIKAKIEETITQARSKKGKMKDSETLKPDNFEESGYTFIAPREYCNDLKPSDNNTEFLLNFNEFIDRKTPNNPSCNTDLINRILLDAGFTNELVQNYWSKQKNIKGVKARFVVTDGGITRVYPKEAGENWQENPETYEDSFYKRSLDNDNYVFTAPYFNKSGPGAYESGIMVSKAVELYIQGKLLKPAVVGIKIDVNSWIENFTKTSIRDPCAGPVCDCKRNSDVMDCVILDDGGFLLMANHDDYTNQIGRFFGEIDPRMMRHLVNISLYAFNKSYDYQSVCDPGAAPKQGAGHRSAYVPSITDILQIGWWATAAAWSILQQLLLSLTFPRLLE
T2 sequence (P54290 945-1091 partner limits assumed): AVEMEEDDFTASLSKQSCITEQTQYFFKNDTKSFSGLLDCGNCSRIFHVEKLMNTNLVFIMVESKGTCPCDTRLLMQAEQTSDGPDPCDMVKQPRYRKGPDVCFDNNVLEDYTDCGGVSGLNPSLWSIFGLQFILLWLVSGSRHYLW
T2 sequence (P54283 whole entry partner): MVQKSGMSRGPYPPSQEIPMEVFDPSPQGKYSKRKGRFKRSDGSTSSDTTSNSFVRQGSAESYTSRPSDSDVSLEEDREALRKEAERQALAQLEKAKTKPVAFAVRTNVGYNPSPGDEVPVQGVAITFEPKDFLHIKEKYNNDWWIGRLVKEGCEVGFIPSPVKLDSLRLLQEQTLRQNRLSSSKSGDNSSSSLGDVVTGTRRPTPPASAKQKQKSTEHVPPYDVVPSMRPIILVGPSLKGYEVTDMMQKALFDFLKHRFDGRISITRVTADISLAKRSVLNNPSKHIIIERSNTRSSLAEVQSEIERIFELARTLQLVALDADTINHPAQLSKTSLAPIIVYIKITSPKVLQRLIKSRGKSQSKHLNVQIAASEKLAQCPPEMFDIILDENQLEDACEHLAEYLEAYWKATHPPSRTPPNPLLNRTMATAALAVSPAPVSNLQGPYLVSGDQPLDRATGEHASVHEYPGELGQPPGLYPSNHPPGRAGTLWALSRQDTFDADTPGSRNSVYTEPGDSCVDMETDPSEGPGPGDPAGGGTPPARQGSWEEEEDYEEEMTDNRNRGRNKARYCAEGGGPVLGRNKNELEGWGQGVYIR
Description: Recombinant human embryonal kidney cells (HEK293, ATCC) stably transfected with either N-type calcium channel (NTCC) subunits (α1b, α2δ, and ⊖3) or L-type calcium channel (LTCC) subunits (α1, α2δ, and β1) were routinely cultured in growth medium consisting of Dulbecco's Modified Eagles Medium containing 10% FBS, 100 U/mL penicillin, 100 μg/mL streptomycin, 4 mM L-glutamine, 500 μg/mL geneticin (G418), 20 μg/mL Blasticidin S (InVivogen, San Diego, Calif.) and 500 μg/mL zeocin (InVivogen).
FLIPR Calcium Mobilization Assay for L-Type Calcium Channel.
One day prior to performing this assay, HEK293 cells stably expressing recombinant rat L-type calcium channel (LTCC) subunits (α1c, α2δ, and β1) were trypsinized, then seeded on poly-D-lysine-coated 96-well clear-bottom black plates (Becton Dickinson, Franklin Lakes, N.J.) at 75,000 cells/well. On the day of the assay, the plates were washed with LTCC wash buffer (127 mM NaCl, 2 mM MgCl2, 700 μM NaH2PO4, 5 mM CaCl2, 5 mM NaHCO3, 8 mM HEPES, 10 mM glucose, pH 7.4), then loaded with 0.1 mL of LTCC wash buffer containing Fluo-4 (3 μM final concentration, Molecular Probes, Eugene, Oreg.). After 1 hour, the cells were washed with 0.1 mL LTCC wash buffer and resuspended in 0.05 mL LTCC assay buffer (same composition as LTCC wash buffer). Plates were then transferred to a FLIPR^96 for assay. The FLIPR measured basal Fluo-4 fluorescence for 15 seconds, then is added 0.05 mL of each compound tested diluted in LTCC assay buffer at final concentrations ranging from about 846 pM to about 17 μM. Fluo-4 fluorescence was then measured for 5 minutes. 0.1 mL KCl agonist dissolved in LTCC assay buffer was then added to the cells to produce a final concentration of 90 mM KCl, and fluorescence was measured for another 45 seconds. Data were collected over the entire time course and analyzed using Excel, Graph Pad Prism, or an in-house regression analysis software.

Question: What does the source list for `CC(C)N(C1CCN(CC(=O)Nc2ccc(OC(F)(F)F)cc2)CC1)S(=O)(=O)c1cccc(C(F)(F)F)c1` [Compound 42l, 2-{4-[Isopropyl-(3-trifluoromethylbenzenesulfonyl)amino]-piperidin-1-yl}-N-(4-trifluoromethoxyphenyl)-acetamide]?
Answer: pIC50 [1]: 6.60; pIC50 [2]: < 4.70

Question: Which results are given for `O=C(CN1CCC(N(C2CC2)S(=O)(=O)c2cccc(C(F)(F)F)c2)CC1)Nc1ccc(C(F)(F)F)cc1F` [Compound 75, 2-{4-[Cyclopropyl-(3-trifluoromethylbenzenesulfonyl)amino]-piperidin-1-yl}-N-(2-fluoro-4-trifluoromethylphenyl)-acetamide]?
Answer: pIC50 [1]: 6.11; pIC50 [2]: < 4.70

Question: How did the pIC50 [1] turn out when `COc1cc(NCCC(=O)N2CCC(N(C(C)C)S(=O)(=O)c3cccc(C(F)(F)F)c3)CC2)cc(OC)c1` [N-{1-[3-(3,5-dimethoxy-phenylamino)-propionyl]-piperidin-4-yl}-N-isopropyl-3-trifluoromethyl-benzenesulfonamide] was run?
Answer: The pIC50 was 6.09.

Question: What about the pIC50 [2] of the same compound?
Answer: Its pIC50 is less than 4.70.

Question: With `COc1cccc(NCCC(=O)N2CCC(N(C(C)C)S(=O)(=O)c3cccc(C(F)(F)F)c3)CC2)c1OC` [N-{1-[3-(2,3-dimethoxy-phenylamino)-propionyl]-piperidin-4-yl}-N-isopropyl-3-trifluoromethyl-benzenesulfonamide] as the compound, how does the pIC50 [1] read?
Answer: The pIC50 was 6.51.

Question: And the pIC50 [2]?
Answer: The pIC50 was 4.70 to 5.00.

Question: With `CCC(C(=O)N1CCC(N(C(C)C)S(=O)(=O)c2cccc(C(F)(F)F)c2)CC1)N(C)Cc1ccccc1` (centres unmarked) [Compound 96, N-{1-[2-(Benzyl-methyl-amino)butyryl]-piperidin-4-yl}-N-isopropyl-3-trifluoromethylbenzenesulfonamide] as the compound, how does the pIC50 [1] read?
Answer: Its pIC50 is 6.09.

Question: And the pIC50 [2]?
Answer: Its pIC50 is 5.36.

Question: What does the source list for `O=C(CN1CCC(N(C2CC2)S(=O)(=O)c2cccc(C(F)(F)F)c2)CC1)Nc1ccccc1` [Compound 57, 2-{4-[Cyclopropyl-(3-trifluoromethylbenzenesulfonyl)-amino]-piperidin-1-yl}-N-phenyl-acetamide]?
Answer: pIC50 [1]: 6.28; pIC50 [2]: < 4.70

Question: How did the pIC50 [1] turn out when `O=C(CN1CCC(N(C2CC2)S(=O)(=O)c2cccc(C(F)(F)F)c2)CC1)Nc1cc(F)cc(C(F)(F)F)c1` [Compound 73, 2-{4-[Cyclopropyl-(3-trifluoromethylbenzenesulfonyl)amino]-piperidin-1-yl}-N-(3-fluoro-5-trifluoromethylphenyl)-acetamide] was run?
Answer: The pIC50 was 6.21.

Question: And the pIC50 [2]?
Answer: Its pIC50 is less than 4.70.

Question: How did the pIC50 [1] turn out when `O=C(CN1CCC(N(C2CC2)S(=O)(=O)c2cccc(C(F)(F)F)c2)CC1)Nc1cc(C(F)(F)F)cc(C(F)(F)F)c1` [Compound 63, N-(3,5-Bis-trifluoromethylphenyl)-2-{4-[cyclopropyl-(3-trifluoromethylbenzenesulfonyl)amino]-piperidin-1-yl}-acetamide] was run?
Answer: The pIC50 was 6.18.

Question: And the pIC50 [2]?
Answer: Its pIC50 is less than 4.70.

Question: With `O=C(CN1CCC(N(C2CC2)S(=O)(=O)c2cccc(C(F)(F)F)c2)CC1)Nc1ccc(F)c(C(F)(F)F)c1` [Compound 71, 2-{4-[Cyclopropyl-(3-trifluoromethylbenzenesulfonyl)amino]-piperidin-1-yl}-N-(4-fluoro-3-trifluoromethylphenyl)-acetamide] as the compound, how does the pIC50 [1] read?
Answer: The pIC50 was 6.21.

Question: What about the pIC50 [2] of the same compound?
Answer: Its pIC50 is less than 4.70.

Question: With `COc1ccc(CNCC(=O)N2CCC(N(C(C)C)S(=O)(=O)c3cccc(C(F)(F)F)c3)CC2)cc1` [Compound 94, N-Isopropyl-N-{1-[2-(4-methoxy-benzylamino)acetyl]-piperidin-4-yl}-3-trifluoromethylbenzenesulfonamide] as the compound, how does the pIC50 [1] read?
Answer: The pIC50 was 6.15.

Question: And the pIC50 [2]?
Answer: Its pIC50 is 4.70 to 5.00.

Question: Which results are given for `CC(C)CC(CC(=O)N1CCC(N(C(C)C)S(=O)(=O)c2cccc(C(F)(F)F)c2)CC1)NCCOCc1ccccc1` (centres unmarked) [N-{1-[3-(2-benzyloxy-ethylamino)-5-methyl-hexanoyl]-piperidin-4-yl}-N-isopropyl-3-trifluoromethyl-benzenesulfonamide]?
Answer: pIC50 [1]: 6.66; pIC50 [2]: 5.35

Question: How did the pIC50 [1] turn out when `CN(C1CCN(C(=O)Nc2cc(C(F)(F)F)cc(C(F)(F)F)c2)CC1)S(=O)(=O)c1ccccc1` [Compound 112, (4-Benzenesulfonyl-methyl-amino)-piperidine-1-carboxylic acid (3,5-bis-trifluoromethylphenyl)-amide] was run?
Answer: Its pIC50 is 6.19.

Question: And the pIC50 [2]?
Answer: Its pIC50 is less than 4.70.

Question: With `O=C(CN1CCC(N(C2CC2)S(=O)(=O)c2cccc(C(F)(F)F)c2)CC1)Nc1cncc(F)c1` [Compound 78, 2-{4-[Cyclopropyl-(3-trifluoromethylbenzenesulfonyl)amino]-piperidin-1-yl}-N-(5-fluoro-pyridin-3-yl)-acetamide] as the compound, how does the pIC50 [1] read?
Answer: Its pIC50 is 6.21.

Question: And the pIC50 [2]?
Answer: The pIC50 was less than 4.70.

Question: `COc1ccc(CNCC(=O)N2CCC(N(C3CC3)S(=O)(=O)c3cccc(C(F)(F)F)c3)CC2)cc1` [Compound 99, N-Cyclopropyl-N-{1-[2-(4-methoxybenzylamino)acetyl]-piperidin-4-yl}-3-trifluoromethylbenzenesulfonamide] was tested. Which pIC50 [1] did it give?
Answer: Its pIC50 is 6.46.

Question: What about the pIC50 [2] of the same compound?
Answer: The pIC50 was less than 4.70.

Question: `CC(C)N(C1CCN(CC(=O)NCc2ccc(F)cc2)CC1)S(=O)(=O)c1cccc(C(F)(F)F)c1` [Compound 42k, N-(4-Fluorobenzyl)-2-{4-[isopropyl-(3-trifluoromethylbenzenesulfonyl)amino]-piperidin-1-yl}-acetamide] was tested. Which pIC50 [1] did it give?
Answer: The pIC50 was 6.48.

Question: What about the pIC50 [2] of the same compound?
Answer: The pIC50 was 5.38.

Question: With `O=C(CN1CCC(N(C2CC2)S(=O)(=O)c2cccc(Cl)c2)CC1)Nc1ccc(F)cc1` [Compound 50, 2-{4-[(3-Chlorobenzenesulfonyl)cyclopropylamino]-piperidin-1-yl}-N-(4-fluorophenyl)acetamide] as the compound, how does the pIC50 [1] read?
Answer: Its pIC50 is 6.08.

Question: And the pIC50 [2]?
Answer: Its pIC50 is 4.70 to 5.00.

Question: Which results are given for `CC(C)N(C1CCN(CC(=O)N(C)c2ccc(F)cc2)CC1)S(=O)(=O)c1cccc(C(F)(F)F)c1` [Compound 42j, N-(4-Fluorophenyl)-2-{4-[isopropyl-(3-trifluoromethyl-benzenesulfonyl)amino]-piperidin-1-yl}-N-methyl-acetamide]?
Answer: pIC50 [1]: 6.48; pIC50 [2]: < 4.70

Question: What does the source list for `CC(C)N(C1CCN(C(=O)CCNc2ccc(F)cc2)CC1)S(=O)(=O)c1cccc(C(F)(F)F)c1` [N-{1-[3-(4-fluoro-phenylamino)-propionyl]-piperidin-4-yl}-N-isopropyl-3-trifluoromethyl-benzenesulfonamide]?
Answer: pIC50 [1]: 6.28; pIC50 [2]: 5.49

Question: How did the pIC50 [1] turn out when `N#Cc1cc(F)cc(NC(=O)CN2CCC(N(C3CC3)S(=O)(=O)c3cccc(C(F)(F)F)c3)CC2)c1` [Compound 81, N-(3-Cyano-5-fluorophenyl)-2-{4-[cyclopropyl-(3-trifluoromethyl-benzenesulfonyl)amino]-piperidin-1-yl}-acetamide] was run?
Answer: The pIC50 was 6.44.

Question: What about the pIC50 [2] of the same compound?
Answer: The pIC50 was less than 4.70.

Question: `CCOC(=O)c1ccc(NC(=O)CN2CCC(N(C3CC3)S(=O)(=O)c3cccc(C(F)(F)F)c3)CC2)cc1` [Compound 54, 4-(2-{4-[Cyclopropyl-(3-trifluoromethylbenzenesulfonyl)amino]-piperidin-1-yl}-acetylamino)benzoic acid ethyl ester] was tested. Which pIC50 [1] did it give?
Answer: Its pIC50 is 6.27.

Question: And the pIC50 [2]?
Answer: The pIC50 was less than 4.70.

Question: `O=C(Nc1cc(C(F)(F)F)cc(C(F)(F)F)c1)N1CCC(N(C2CC2)S(=O)(=O)c2cccc(C(F)(F)F)c2)CC1` [Compound 111, 4-[Cyclopropyl-(3-trifluoromethylbenzenesulfonyl)amino]-piperidine-1-carboxylic acid (3,5-bis-trifluoromethylphenyl)-amide] was tested. Which pIC50 [1] did it give?
Answer: The pIC50 was 5.63.

Question: And the pIC50 [2]?
Answer: The pIC50 was less than 4.70.

Question: `COc1cccc(NCCC(=O)N2CCC(N(C(C)C)S(=O)(=O)c3cccc(C(F)(F)F)c3)CC2)c1` [N-isopropyl-N-{1-[3-(3-methoxy-phenylamino)-propionyl]-piperidin-4-yl}-3-trifluoromethyl-benzenesulfonamide] was tested. Which pIC50 [1] did it give?
Answer: The pIC50 was 6.38.

Question: What about the pIC50 [2] of the same compound?
Answer: The pIC50 was 4.70 to 5.00.

Question: Which results are given for `Cc1ccccc1NC(=O)CN1CCC(N(C(C)C)S(=O)(=O)c2cccc(C(F)(F)F)c2)CC1` [Compound 42b, 2-{4-[Isopropyl-(3-trifluoromethylbenzenesulfonyl)amino]-piperidin-1-yl}-N-o-tolyl-acetamide]?
Answer: pIC50 [1]: 6.34; pIC50 [2]: 5.49

Question: With `CC(C)N(C1CCN(C(=O)CCNc2ccc(F)c(F)c2)CC1)S(=O)(=O)c1cccc(C(F)(F)F)c1` [N-{1-[3-(3,4-difluoro-phenylamino)-propionyl]-piperidin-4-yl}-N-isopropyl-3-trifluoromethyl-benzenesulfonamide] as the compound, how does the pIC50 [1] read?
Answer: Its pIC50 is 6.41.

Question: What about the pIC50 [2] of the same compound?
Answer: Its pIC50 is less than 4.70.

Question: Which results are given for `CC(C)N(C1CCN(C(=O)CCNc2ccc(Cl)cc2)CC1)S(=O)(=O)c1cccc(C(F)(F)F)c1` [N-{1-[3-(4-chloro-phenylamino)-propionyl]-piperidin-4-yl}-N-isopropyl-3-trifluoromethyl-benzenesulfonamide]?
Answer: pIC50 [1]: 6.03; pIC50 [2]: < 4.70
